Source: patent US8946407B2, “Fructosylated mangiferin and preparation method therefor and use thereof” (priority 2011, dated 2015)

Columns and labels:
[1] = system: Human chronic myelogenous leukemia cell strain K562; assay: K562 cell toxicity test (MTT method); type: cell-based; conditions: for Average suppression rate (%) / OD value: 48 h; for Average suppression rate (%): K562; for OD value: K562, A490 MTT
Procedure: Human chronic myelogenous leukemia cell strain K562, purchased from the cell bank of Shanghai Cell Research Institute of Chinese Academy of Sciences; mangiferin, purchased from Nanjing Zelang Medical Science and Technology Co., Ltd.; monofructosyl-β (2,6)-mangiferin is prepared with the method described in this invention, with purity over 99% as determined by high performance liquid chromatography. Drug liquid and its storage: weigh 8.44 mg mangiferin powder and dissolve it in 2 mL DMSO to prepare it into 10 mmol/L mangiferin; weigh 11.68 mg monofructosyl-β (2,6)-mangiferin powder and dissolve it in 2 mL DMSO to prepare it into 10 mmol/L monofructosyl-β (2,6)-mangiferin; they are filtered with a 0.22 μm filter, packed in 1000 μL/doff and stored at −20° C., meanwhile, high concentration DMSO is filtered with a 0.22 μm filter for use as control. The K-562 cells are cultured in RPMI-1640 complete culture medium containing inactivated calf serum at volume fraction of 10%, 100 U penicillin and streptomycin, in an incubating box at 37° C., with 5% CO2 and at saturated humidity. Take K-562 cells in logarithmic growing phase, adjust its concentration to 1×10^5/mL, and inoculate them in a 96-hole culture plate, each hole with 90 μL of suspended cell liquid, the experimental group is treated with mangiferin and monofructosyl-β (2,6)-mangiferin at different end concentration (1, 5, 10, 20, 50, 100, 150 and 200 μmol/L), with 10 μL in each hole, the DMSO solvent control group is added with 20 μL PBS containing the corresponding drug solvent, and the blank group is added with 20 μL PBS. For each drug concentration, 6 repeating holes are provided. The culture plate is put back into the cell culture box, add 20 μL MTT (5 mg/mL) solution after 48 h, and after further incubation of 4 h in the culture box, add triple liquid 100 μL into each hole, put it still overnight to allow full dissolution of crystal. Vibrate it with oscillator for 20 min and determine the light absorption at 490 nm with a fully automatic ELISA instrument, and calculate the average suppression rate, the suppression rate (%)=(control group A490−test group A490)/control group A490), the experiment was repeated three times. Relevant analysis and Student t tests in Microsoft Excel 2003 were used, and data are presented in.

dissolvability at 25° C. = type: physicochemical
Procedure: As determined, at 25° C., the dissolvability of monofructosyl-β-(2,6)-mangiferin is 350 g/L, and that of bifructosyl-β-(2,6)-mangiferin is 1200 g/L, respectively 3.5×103 times and 1.2×104 times that of mangiferin (0.1 g/L) under the same condition.

Row | dissolvability (dissolvability at 25° C.) | Compound | Average suppression rate (%) ([1]; 1 μmol/L) | OD value ([1]; 1 μmol/L) | Average suppression rate (%) ([1]; 5 μmol/L) | OD value ([1]; 5 μmol/L) | Average suppression rate (%) ([1]; 10 μmol/L) | OD value ([1]; 10 μmol/L) | Average suppression rate (%) ([1]; 20 μmol/L) | OD value ([1]; 20 μmol/L) | Average suppression rate (%) ([1]; 50 μmol/L) | OD value ([1]; 50 μmol/L) | Average suppression rate (%) ([1]; 100 μmol/L) | OD value ([1]; 100 μmol/L) | Average suppression rate (%) ([1]; 150 μmol/L) | OD value ([1]; 150 μmol/L) | Average suppression rate (%) ([1]; 200 μmol/L) | OD value ([1]; 200 μmol/L) | effect on K562 cell proliferation (in words) ([1]; after acting for 48 h, MTT method)
1 | – | O=c1c2cc(O)c(O)cc2oc2cc(O)c([C@@H]3O[C@H](CO)[C@@H](O)[C@H](O)[C@H]3O)c(O)c12 [mangiferin] | 7.74% | 0.952 ± 0.034 | 8.39% | 0.945 ± 0.041 | 10.75% | 0.921 ± 0.036 | 3.52% | 0.995 ± 0.086 | −3.9% | 1.096 ± 0.143 | −16.08% | 1.198 ± 0.048 | −10.61% | 1.141 ± 0.049 | −14.56% | 1.182 ± 0.175 | –
2 | 350 g/L | monofructosyl-β-(2,6)-mangiferin | 4.53% | 0.982 ± 0.039 | 8.79% | 0.938 ± 0.102 | 8.19% | 0.944 ± 0.053 | 8.56% | 0.941 ± 0.040 | 8.87% | 0.938 ± 0.041 | 23.19% | 0.790 ± 0.098 | 36.53% | 0.653 ± 0.026 | 41.48% | 0.602 ± 0.021 | can markedly suppress the proliferation
3 | 1200 g/L | bifructosyl-β-(2,6)-mangiferin | – | – | – | – | – | – | – | – | – | – | – | – | – | – | – | – | –
